By melting point is commonly meant the temperature, or range, at which the solid turns liquid.

In the case of `CC(=O)N[C@@H](C)COC1CCN(c2nc3cc(OCC4CCC4)ccc3o2)CC1`, the melting point is 109 to 110 °C.
For `COC(=O)c1ccc(Oc2c(C)n(CC(=O)O)c3ccc(Cl)cc23)cc1`, the melting point lay in the range of 196 to 197 °C.
The compound `CCS(=O)(=O)N(C)C1CCCOc2ccccc21` (configuration not stated) came in with a melting point of 122 to 124 °C.
Compound `O=c1c2cc(F)c(N3CCCC3)cc2n(-c2ccc(F)cc2)c(=O)n1O` registered a melting point of 183 to 185 °C.
The compound `COc1cc(Nc2cc(-c3ccccc3)on2)ccc1-c1cnco1` had a melting point of 173 to 175 °C.
As for `NNC(=O)N(O)Cc1ccc(OCc2csc(-c3ccccc3)n2)cc1`, the melting point was in the range of 144 to 145 °C.
`CC1(C)C(=O)Oc2ccc3ccc(C(C#N)n4cncn4)cc3c21` (configuration not stated): the melting point is 196 to 198 °C.
`COc1ccc2c(c1)c1cc(-c3cc(F)cc(F)c3)c(=O)n(C)c1n2C` registered a melting point of 189 °C.
Turning to `C[C@@]1(CO)CCC(=O)O1`, the melting point is 44.5 to 46.5 °C.
The result for `O=C1COc2cc(NC(=O)C(=O)N3CCC(C(O)c4ccccc4)CC3)ccc2N1` (configuration not stated) reads 195 to 197 °C; that for `CC1(O)CC(=O)OC(CCc2ccccc2OCc2ccccc2)C1Br` (configuration not stated), 122 to 125 °C; that for `O=c1cc(N2CCOCC2)oc2cc(OCc3ccccc3)ccc12`, 170 to 172 °C.
For `CC(C)(COCC(C)(C)c1ccc(O)cc1)c1ccc(O)cc1`, the melting point is 69.2 to 70 °C.
For the compound `CCc1cc(NCc2nc3ccccc3s2)c(=O)[nH]c1C`, the melting point lay within 209 to 210 °C.
As to `C[C@@H](c1ccc(-c2[nH]nnc2Cl)cc1)[C@](O)(Cn1cncn1)c1ccc(F)cc1F`, the melting point was 113 to 115 °C.
As to `C=C(COCc1ccccc1)C(O)C(NC=O)C(=O)OCC` (configuration not stated), the melting point lay within 112 to 114 °C.
For `CCc1cccc2oc(C(=O)Nc3ccc(-c4ccc(S(=O)(=O)NC(C(=O)OC)C(C)C)cc4)cc3)c(C)c12` (configuration not stated), the melting point is 183 to 185 °C.
In turn, `CCC1(C)OC(c2ccc(S(N)(=O)=O)cc2)=C(c2ccsc2)C1=O` (configuration not stated) gave a melting point of 120 to 121 °C.
In the case of `CN(Cc1ccc(NC(=O)C2=Cc3cc(Br)ccc3CCC2)cc1)C1CCOCC1`, the melting point fell in the range of 116 to 121 °C.
`CCCCCCNC(=O)c1cc(OC(C)=O)ccc1OC(C)=O`: the melting point lay within 76.5 to 77 °C.
Compound `COc1ccc(-c2cccc(C(=O)NN)c2)cc1OC1CCCC1` registered a melting point of 167 to 168 °C.
`CC(C)c1nc(-c2ccccc2)c(-c2ccccc2)c(-c2ccc(F)cc2)c1CO`: the melting point fell in the range of 169 to 171 °C.
`CCCCCc1ccc(-c2ccc(C(C)OC(=O)CCC)cc2)cc1` (single isomer, unassigned; (+)) registered a melting point of 38.1 °C.
For the compound `COC(=O)CCCCCCCCOC1OC(CO)C(OC2OC(C)C(O)C(O)C2O)C(O)C1NC(C)=O` (configuration not stated), the melting point lay in the range of 145 to 146 °C.
The figure for `CCOC(=O)c1cnc2c(cnn2CC)c1NN=C(C)CC#N` is 190 to 191 °C.
For `Cc1ccc(C(C)(C)C)c(Oc2ccc(O)cc2)c1`, the melting point was found to be 102 °C.
In turn, `O=C(NCCCCCC(=O)C(F)(F)F)OCC1c2ccccc2-c2ccccc21` showed a melting point of 83 to 88 °C.
`Nc1cc(N2CCNCC2)ccc1[N+](=O)[O-]`: the melting point lay within 159 to 160 °C.
In turn, `CCCc1c(-c2cc(=O)c3c(O)cc(O)cc3o2)ccc(OC)c1O` had a melting point of 200 °C.
Turning to `Nc1cc(Cl)cc(Cl)c1C(=O)NCc1cccc(F)c1`, the melting point was 79 to 81 °C.
In the case of `CNC(=O)CNC(=O)c1ccc(C)c(-n2c(C)cc(OCc3ccccc3CNC(=O)Nc3cc(C(C)(C)C)nn3-c3ccc(O)c(Cl)c3)c(Cl)c2=O)c1`, the melting point lay in the range of 209 to 211 °C.
`Fc1ccc(NN=Cc2cccs2)cc1` returned a melting point of 138 to 140 °C.
Consider `O=S(=O)(Nc1cccnc1Nc1ccccc1)c1ccccc1Cl`, for which the melting point was in the range of 140 to 141 °C.
On to `CS(=O)(=O)NC1Cc2ccc(C3=NNC(=O)CC3)cc2C1` (configuration not stated), for which the melting point lay within 218 to 220 °C.
`COc1cc2occ(C(=O)Nc3cccnc3)c2cc1C(F)(F)F`: the melting point was in the range of 219 to 221 °C.
`COc1ccc(-c2ccc3c(C(=O)c4ccn5c4C(C)(C)SC5c4cccnc4)c[nH]c3c2)cc1` (configuration not stated) showed a melting point of 236 to 239 °C.
With `Cc1ccc(S(=O)(=O)Nc2cc(CC(C)C)c([N+](=O)[O-])cc2Br)cc1`, the melting point stood at 170 °C.
`CC(C)(C)C(=O)C=C(c1ccccc1)n1cncn1`: the melting point is 70 to 73 °C.
The result for `COc1cc2c(cc1Nc1ncc(Cl)c(Nc3cc(C(N)=O)ccc3OC)n1)CCN(CC(=O)N(C)C)CC2` reads 163 to 174 °C; that for `Nc1cc2c(c3ccccc13)C(CCl)CN2C(=O)C(F)(F)F` (configuration not stated), 177 °C; that for `CN1CCN(c2cnc3cc(Cl)ccc3n2)CC1`, 151 to 152 °C.
`Cc1c(NC(=O)c2ccc(-c3ccc(F)cc3)cc2)ccc2cc(CN3CCC(CC(=O)N(C)C)CC3)cnc12` gave a melting point of 200 to 201 °C.
Compound `CC(=O)n1nc(CBr)c(Oc2cc(Cl)cc(C#N)c2)c1C` yielded a melting point of 122 to 123 °C.
As for `CCCC(=O)c1cnc2c(OC)cccc2c1Nc1cccc(CO)c1C`, the melting point is 186 to 188 °C.
In turn, `CC(C)N1CN(C(=O)c2c(F)cccc2F)C(=O)N(c2ccc(Cl)cc2)C1` came in with a melting point of 130 to 131 °C.
On to `OCCCc1cc(Cl)cc2nc(Cc3ccccc3Cl)oc12`, for which the melting point was in the range of 87 to 89 °C.
The result for `CC(=O)Nc1ccc(Sc2c(-c3ccc(S(C)(=O)=O)cc3)cnn(CC(F)(F)F)c2=O)cc1` reads 191 to 193 °C; that for `C/C(=C\C(=O)Nc1ccccc1C(=O)O)c1ccc(OC(F)F)c(OC(F)F)c1`, 170 to 173 °C; that for `CCCc1c(OCCCOc2ccc(-c3csc(=S)[nH]3)c(OC)c2CCC)ccc2c1OC(C(=O)O)CC2` (configuration not stated), 149 to 151 °C.
For `BrCc1nsc2nc3ccccc3n12`, the melting point fell in the range of 242 to 244 °C.
The result for `Cc1cccnc1C=CCN1CCc2nc(N)sc2CC1` reads 188 to 190 °C; that for `CON=Cc1cc(-n2c(=O)cc(C(F)(F)F)[nH]c2=O)c(F)cc1Cl`, 176 to 177 °C.
`Nc1ccn(C2CC(O)C(CO)O2)c(=O)n1` (configuration not stated) registered a melting point of 208 to 210 °C.
The figure for `CNS(=O)(=O)c1ccc(-c2coc3ccc(-c4nnc(C)o4)cc23)cc1` is 203 to 204 °C; for `COc1cc(C=CC(=O)c2ccccc2)cc(C(F)(F)F)c1O` it is 166 to 168 °C; for `COc1ccc2[nH]nc(N3CCN(C[C@@H](O)COc4cccc(-c5noc6ccsc56)c4)CC3)c2c1` it is 84 to 86 °C.
The compound `COC(=O)c1cc(I)cc(C)c1OC` had a melting point of 55 to 57 °C.
On to `Cn1ccnc1SCCN1CCC(=C2c3ccn(C)c3CCn3ccnc32)CC1`, for which the melting point was 200 °C.
Consider `CC(C)(Sc1ccccc1)C(=O)O`, for which the melting point lay in the range of 62 to 64 °C.
Take `CCc1nc(C(=O)O)c(Cl)c(N)c1F`: the melting point was in the range of 144 to 145 °C.
`COc1ccc2c(c1O)NC(OC)C1CCCN1C2=O` (configuration not stated) showed a melting point of 154 to 156 °C.
Turning to `CN(C)C(=O)c1sc(C(c2ccc(Cl)cc2)c2c(Cl)cc(-n3ncc(=O)[nH]c3=O)cc2Cl)nc1-c1ccccc1` (configuration not stated), the melting point is 150 °C.
`CCC1Cc2c(O)cc(OC)cc2C(=O)O1` (configuration not stated) came in with a melting point of 167 to 168 °C.
On to `CCCNS(=O)(=O)c1nc2ccc(OCC)cc2s1`, for which the melting point fell in the range of 112 to 113 °C.
The figure for `CC1(C)C(=O)Nc2cc3[nH]c(-c4cncnc4)nc3cc21` is 310 to 312 °C.
Regarding `O=c1[nH]c(=O)n(C2CC(O)C(CO)O2)cc1C=CBr` (configuration not stated), the melting point was 165 to 166 °C.
Regarding `CCOC(=O)c1cn2c(C)c(C)nc2c(NCc2c(C)cccc2CC)n1`, the melting point stood at 144 °C.
For the compound `O=C1c2ccccc2S(=O)(=O)N1CS(=O)(=O)c1ccccc1`, the melting point was in the range of 169 to 171 °C.
On to `COc1ccc(Cn2nc(-n3cnn(Cc4ccc(F)cc4)c3=O)cc2C(=O)NCc2cccnc2)cc1`, for which the melting point is 210 to 211 °C.
The compound `NC(=O)C1CCN(Cc2cnc3cc(NC(=O)c4ccc(-c5ccc(Cl)cc5)cc4)ccc3c2)CC1` returned a melting point of 260 °C.
Compound `Cn1nnnc1SCCCCCCCCSc1nnnn1C` yielded a melting point of 52 to 54 °C.
The result for `COc1ccccc1Oc1c(NS(=O)(=O)c2ccc(C(C)(C)C)cc2)nc(NCCN(C)C)nc1OCCOc1ncc(Br)cn1` reads 129 to 132 °C; that for `COc1ccccc1Oc1c(NS(=O)(=O)c2ccc(C(C)(C)C)cc2)nc(NCCN(C)C)nc1OCCO`, 102 to 106 °C; that for `Cn1c(CCc2ccc(C#N)cc2)nc2cc(NS(=O)(=O)c3ccccc3)ccc21`, 222 to 225 °C.
For `CCc1nc2cccc(C(=O)O)c2n1Cc1ccc(-c2ccccc2-c2nnn[nH]2)cc1`, the melting point was 261 to 262 °C.
As for `CC(C)=CCOc1ccc(C(=O)C=Cc2ccc(C)cc2)c(O)c1`, the melting point lay within 108 to 109 °C.
The figure for `COc1ccc(OC)c2c(C=O)c3ccccc3c(C=O)c12` is 208 to 212 °C; for `COc1ccc(-c2ccc(C#N)cc2)nc1` it is 93 to 95 °C; for `O=[N+]([O-])c1ccc(-c2cccc(-c3cn([C@H]4CN5CCC4CC5)nn3)c2)cn1` it is 180 °C.
`N#CCC12CC(c3ccccc31)c1ccccc12` gave a melting point of 130 to 131 °C.
Consider `Cc1ccnc2c1C(=NNC(=N)N)CC(c1cc(Cl)sc1Cl)C2` (configuration not stated), for which the melting point lay within 250 to 251 °C.
In turn, `Cc1ccc(S(=O)(=O)NCc2ccc(CCN3CCN(c4ccncc4)CC3)cc2)cc1` showed a melting point of 180 to 182 °C.
Take `O=C(O)c1ccc2c(c1)C(=O)C(=Cc1cccs1)O2`: the melting point fell in the range of 310 to 312 °C.
Compound `Cc1cc(C(N)=O)c(NC(=O)CCC(F)(F)F)s1` came in with a melting point of 151 to 153 °C.
Turning to `O=C1Nc2cccnc2N(CC#CCN2CCOCC2)c2ccccc21`, the melting point turned out to be 168 °C.
In turn, `O=C(O)C(=NOCc1cccnc1)c1csc(NC(c2ccccc2)(c2ccccc2)c2ccccc2)n1` displayed a melting point of 192 °C.
The compound `COc1ccc2cc(C(=O)O)oc2c1` displayed a melting point of 208 to 211 °C.

Source of the values: a melting point compilation (Tetko et al.; mined from patent text by program, amines drawn as free bases though some values may be those of a salt).
